According to US20120251495A1, “PTERIN BASED THERAPIES FOR INFLAMMATORY CONDITIONS” (priority 2008, published 2012):

Columns and labels:
[1] = test system: MDA-MB-231 human breast tumor xenographs; assay: Antitumor efficacy in nude mice with MDA-MB-231 xenographs, 2nd experiment; format: in vivo, athymic nude mice; conditions: (1:2) 25, DCP 23 and 69, calcium chloride dihydrate 4.2 mg/kg/day
Description: In the 2nd experiment, twenty-nine athymic nude, also purchased from Harlan Sprague Dawley, Inc. (Indianapolis, Ind.), were each injected subcutaneously with 10×10^6 MDA-MB-231 cancer cells into the right flank. When tumors reached 3-5 mm in size, the mice were divided into five treatment groups of five each and a control group of four mice. […] All the other mice in the 2nd experiment persisted ≧43 days without complications. Experimental groups were treated by oral gavage once daily with the indicated test suspensions or solutions.

plasma cytokines [2] = assay: Plasma cytokine levels (multiplex and single ELISA kits), 2nd experiment; format: in vivo, athymic nude mice; conditions: for IL-5: limit of detection 3.0; for IL-6: limit of detection 3.9; for IL-1β: limit of detection 4.1; for IL-10: limit of detection 24.6
Description: Cytokine levels in EDTA plasma from the mice in the 2nd experiment were measured at the UCSD Core Laboratory (San Diego, Calif.) using a multiplex assay kit for IL-1β, IL-2, IL-4, IL-5, IL-10, IL-12, IFN-γ, TNF-α and single ELISA kits for IL-6 and TGF-β1 by R&D Systems. […] For both the 1st and 2nd experiments, those measured cytokine values falling below the limits of detection were set to the higher assay limit for the purposes of the subsequent statistical analyses, and recorded as n.d. (not detectable) in Tables 1 through 3.

[3] = test system: MDA-MB-231 human breast tumor xenographs; assay: Antitumor efficacy in nude mice with MDA-MB-231 xenographs, 1st experiment; format: in vivo, athymic nude (nu/nu) mice; conditions: 21 mg/kg/day
Description: The aims of the 1st experiment were to determine a dose-response curve for the (1:4 mol:mol) calcium pterin suspension, to compare the antitumor activity of this suspension to pterin alone (pterin control), and to test the effect of CaPterin mega-dosing at 100 mg/kg/day. Antitumor efficacy was evaluated in nude mice with MDA-MB-231 human tumor xenographs by Perry Scientific (San Diego, Calif.). In the 1st experiment, twenty-three athymic nude (nu/nu) female mice, ages 3-4 weeks, were purchased from Harlan Sprague Dawley, Inc. (Indianapolis, Ind.). 5×10^6 MDA-MB-231 cancer cells were injected subcutaneously into the right flank of each mouse. When tumors reached 3-5 mm in size, twenty mice were divided into four treatment/control groups of five mice each. The four treatment groups were: (1:4 mol:mol) calcium pterin (7 mg/kg/day); pterin (21 mg/kg/day); (1:4 mol:mol) calcium pterin (21 mg/kg/day); and sterile water control. Two mice with outlying tumor sizes or non-tumor takes were excluded shortly after treatment began: one from the pterin group and one from the control group. […] Only one outlier persisted >4 days, for 14 days. Also excluded from the metabolic analysis in the 1st experiment was one mouse from each of the four experimental groups mega-dosed by oral gavage with 100 mg/kg/day CaPterin for tip to 31 days to test for toxicity. All the other mice in the 1st experiment persisted ≧60 days without complications.
The control mice in the 1st experiment were treated with sterile water while the control mice in the 2nd experiment were untreated to evaluate the effect of mouse handling and gavaging upon tumor growth. Daily dosing was for 7 days per week. Animals were restrained but not anesthetized for oral dosing. Tumors were measured twice weekly with calipers and body weights taken twice weekly on the day of tumor measurements. Blood was collected from all animals via cardiac puncture at termination (after 70 to 98 days of treatment) and processed to EDTA plasma for analysis. Tumor size measurements for the control group in the 2nd experiment on days 4 and 7 were missed due to a technical oversight.
The MDA-MB-231 human breast tumor cell lines were supplied by SRI International (Menlo Park, Calif.) and propagated using standard in vitro cell expansion methods. Briefly, cells were grown in L-15 media from Gibco (Cat. No. 11415-064) supplemented with 2 mM L-Glutamine and 10% Fetal Bovine Serum (FBS). The cells were cultured in an incubator with 5% CO2, 37.5° C., and 80% humidity. Cells were harvested with 0.25% (w/v) Trypsin-0.03% (w/v) EDTA solution. Cells were prepared for injection by standard methods to appropriate concentrations. Animals were temporarily restrained but not anesthetized for the inoculation of the tumor cells. Animals were subcutaneously injected with the tumor cells in a 100-200 μl volume.
Each animal was individually tracked for tumor growth by external caliper measurements of protruding tumor. Primary tumor sizes were measured using calipers and an approximate tumor volume calculated using the formula 1/2 (a×b^2), where b was the smaller of two perpendicular diameters.
For each group, the mean and standard error of the mean (SEM) of the ratio V/Vo, Relative Tumor Volume (RTV), were plotted as a function of treatment time after inoculation. V0 was the tumor volume at Day 0, when treatment began.

plasma cytokines [4] = assay: Plasma cytokine levels by ELISA (LINCOplex), 1st experiment; format: in vivo, athymic nude (nu/nu) mice; conditions: Table 4, 21 mg/kg/d
Description: Cytokine levels in EDTA plasma from the mice in the 1st experiment were determined by ELISA assay at Alta Analytical Laboratories (San Diego, Calif.) using a LINCOplex Kit (Linco Research). Tryptophan (Trp) and kynurenine (Kyn) concentrations were measured from EDTA plasma samples by high pressure liquid chromatography (HPLC) using 3-nitro-L-tyrosine as the internal standard (Widner et al., 1997). To estimate IDO activity, the kynurenine to tryptophan ratio (Kyn/Trp) was calculated and expressed as μmol kynurenine/mmol tryptophan (Wirleitner, 2003). The values from five mice in the 1st experiment are not included in the summary statistics given in Table 1 for the following reasons. One mouse from each of the four treatment groups was used to test the effects of mega dosing, i.e., with (1:4 mol:mol) calcium pterin at 100 mg/kg/day after Day 60 of treatment, and are excluded. Also excluded was one mouse from the (1:4 mol:mol) calcium pterin (7 mg/kg/day) group which expired suddenly a few days before blood was collected. Cytokine measurements <3.2 pg/ml are reported as n.d. (not detectable) because the standard curves used in the ELISA assays were not calibrated below that level.
Cytokine levels in EDTA plasma from the mice in the 1st experiment were determined by ELISA assay at Alta Analytical Laboratories (San Diego, Calif.) using a LINCOplex Kit (Linco Research).
Cytokine levels in EDTA plasma from the mice in the 2nd experiment were measured at the UCSD Core Laboratory (San Diego, Calif.) using a multiplex assay kit for IL-1β, IL-2, IL-4, IL-5, IL-10, IL-12, IFN-γ, TNF-α and single ELISA kits for IL-6 and TGF-β1 by R&D Systems. EDTA plasma samples from two of the three ungavaged controls were lost due to handling error. For both the 1st and 2nd experiments, those measured cytokine values falling below the limits of detection were set to the higher assay limit for the purposes of the subsequent statistical analyses, and recorded as n.d. (not detectable) in Tables 1 through 3.

[5] = test system: MDA-MB-231 xenograph tumors; assay: Combined analysis of DCP + control mice: Day 42,43 relative tumor volume and DCP/APCP; format: in vivo, nude mice; conditions: 25 mg/(kg day); Day 42,43 relative tumor volume; combined data
Description: Standard ANOVA models for group effects, curve fitting, and stepwise regression analyses were carried out using SPSS Graduate Pack 15.0 for Windows (2006), with p<0.05 used to determine significance.
Table 7 gives the plasma cytokine and relative tumor volume Spearman rank order correlations for the 12 DCP+ control mice (Control [n=3; from 1st experiment]; 23 mg/(kg d) DCP [n=5; from 2nd experiment]; and 69 mg/(kg d) DCP [n=4; from 2nd experiment]).
To further determine significant causal and correlational linkages among DCP dosage, plasma cytokine changes, and relative tumor volume, the following curve fitting analyses were carried out with the 12 DCP+ control mice. First, plotting DCP versus Day 42,43 Relative Tumor Volume yielded a significant quadratic relationship (FIG. 11). Second, curve fitting each cytokine versus Day 42,43 Relative Tumor Volume found no significant linear relationship and only one significant quadratic relationship, i.e., with IL-12 (p=0.004; FIG. 12). Third, plotting DCP versus IL-12 yielded a weakly significant quadratic relationship (p=0.048; FIG. 13).
Substantially more significant analogous plots were generated by first carrying out the Table 8 stepwise regression analysis which derived the DCP antitumor plasma cytokine pattern (DCP/APCP), shown to be a more significant cytokine composite measure than IL-12 taken alone. The Table 8 stepwise regression analysis of the cytokine data from the 12 DCP+ control mice allowed for the calculation of DCP/APCP scores for each mouse. These DCP/APCP scores are plotted versus DCP dosage in […], which illustrates the significant quadratic dose-response relationships of DCP versus the derived plasma DCP/APCP composite measure. From this figure the estimated optimum dosage of DCP for maximum tumor growth inhibition is 42 mg/(kg day), while the estimated optimum dosage for maximum DCP/APCP induction is 44 mg/(kg day).

[6] = 2nd experiment, CaCl2 group, 4.2 mg/kg/day
[7] = 2nd experiment, CaCl2 group, 4.2 mg/kg/day, limit of detection 3.2
[8] = 2nd experiment, 25 mg/kg/d, limit of detection 3.2

With O.O.[Ca+2].[Cl-].[Cl-] [CaCl2•2H2O, calcium chloride dihydrate, reference compound] the “MDA-MB-231 xenograph growth inhibition” value [1] was “significantly inhibit”, the “plasma IL-12 versus control (FIG. 10)” value (plasma cytokines [2]; 4.2 mg/(kg day)) was “significantly elevated” and the IL-5 (plasma cytokines [2]; [6]) was 10.3 ± 2.4 pg/mL. The IFN-γ (plasma cytokines [2]; [7]) was 9.7 ± 3.3 pg/mL, the IL-4 (plasma cytokines [2]; [7]) was 3.6 ± .3 pg/mL and the IL-12 (plasma cytokines [2]; [7]) was 904.9 ± 156.9 pg/mL. For the same compound, the IL-6 (plasma cytokines [2]; [6]) was 44.4 ± 15.4 pg/mL, the IL-1β (plasma cytokines [2]; [6]) was 6.4 ± .9 pg/mL and the IL-2 (plasma cytokines [2]; 2nd experiment, CaCl2 group, 4.2 mg/kg/day, limit of detection 12.6) was 12.7 ± .13 pg/mL. It also gave an IL-10 (plasma cytokines [2]; [6]) of 26.5 ± 1.9 pg/mL and a TGF-β1 (plasma cytokines [2]; 2nd experiment, CaCl2 group, 4.2 mg/kg/day, limit of detection 31.2) of 74.3 ± 35.0 pg/mL.
With Nc1nc2nccnc2c(=O)[nH]1 [Pterin, 2-amino-4(3H)-pteridinone] the “antitumor activity (tumor growth vs control)” value [3] was “no antitumor activity”, the IL-12 (plasma cytokines [4]; limit of detection 3.2) was 48.5 ± 45.3 pg/mL and the TNF-α (plasma cytokines [4]; limit of detection 3.2) was 9.0 ± 3.7 pg/mL. It also gave an IL-1β (plasma cytokines [4]; limit of detection 4.1) of 64.6 ± 60.4 pg/mL and an IL-6 (plasma cytokines [4]; plasma at sacrifice, limit of detection 3.9) of 87.4 ± 11.0 pg/mL.
In the case of (1:2 mol:mol) calcium pterin, the “MDA-MB-231 xenograph growth inhibition” value [1] is reported as “significantly inhibit”, the “tumor growth inhibition relative to controls (FIG. 9)” value [5] is reported as “significant tumor growth inhibition” and the IL-5 (plasma cytokines [2]; 2nd experiment, 25 mg/kg/d) is reported as 4.4 ± .9 pg/mL. It also gave an IFN-γ (plasma cytokines [2]; [8]) of 16.1 ± 12.9 pg/mL, an IL-12 (plasma cytokines [2]; [8]) of 315.2 ± 71.0 pg/mL and an IL-6 (plasma cytokines [2]; 2nd experiment, 25 mg/kg/d) of 31.6 ± 9.2 pg/mL. For the same compound, the IL-1β (plasma cytokines [2]; 2nd experiment, 25 mg/kg/d) was 4.9 ± .5 pg/mL, the IL-10 (plasma cytokines [2]; 2nd experiment, 25 mg/kg/d) was 30.2 ± 5.6 pg/mL and the “increases in plasma IL-12 (FIG. 10)” value (plasma cytokines [2]; at the dosages tested) was “lower, non-significant increases”.
